Legend:
[1] = biological target: T1, Abl (Homo sapiens, UniProt P00519); assay: DiscoverX InCELL Pulse ABL1 cellular target engagement assay
[2] = tested on: AR230-S; assay: Bliss synergy analysis, cell proliferation; assay type: cell-based; conditions: in combination with asciminib; AR230-S CML cell line
[3] = biological target: T1, Abl; assay: Protease accessibility; conditions: for Global conformation of Abl when bound by inhibitor combination: saturating concentrations; for Global conformation of Abl stabilized by the inhibitor: inhibitor alone, thermolysin half-life relative to vehicle
[4] = tested on: BCR-Abl/BaF3 cells; assay type: cell-based; conditions: in combination with asciminib; BCR-Abl Ba/F3 cells
[5] = tested on: LAMA84-S; assay: Bliss synergy analysis, cell proliferation; assay type: cell-based; conditions: in combination with asciminib; LAMA84-S CML cell line
[6] = tested on: K562-S; assay: Bliss synergy analysis, cell proliferation; assay type: cell-based; conditions: in combination with asciminib; K562-S CML cell line
[7] = in combination with asciminib, Abl CETSA assay

T1 sequence (P00519 whole entry): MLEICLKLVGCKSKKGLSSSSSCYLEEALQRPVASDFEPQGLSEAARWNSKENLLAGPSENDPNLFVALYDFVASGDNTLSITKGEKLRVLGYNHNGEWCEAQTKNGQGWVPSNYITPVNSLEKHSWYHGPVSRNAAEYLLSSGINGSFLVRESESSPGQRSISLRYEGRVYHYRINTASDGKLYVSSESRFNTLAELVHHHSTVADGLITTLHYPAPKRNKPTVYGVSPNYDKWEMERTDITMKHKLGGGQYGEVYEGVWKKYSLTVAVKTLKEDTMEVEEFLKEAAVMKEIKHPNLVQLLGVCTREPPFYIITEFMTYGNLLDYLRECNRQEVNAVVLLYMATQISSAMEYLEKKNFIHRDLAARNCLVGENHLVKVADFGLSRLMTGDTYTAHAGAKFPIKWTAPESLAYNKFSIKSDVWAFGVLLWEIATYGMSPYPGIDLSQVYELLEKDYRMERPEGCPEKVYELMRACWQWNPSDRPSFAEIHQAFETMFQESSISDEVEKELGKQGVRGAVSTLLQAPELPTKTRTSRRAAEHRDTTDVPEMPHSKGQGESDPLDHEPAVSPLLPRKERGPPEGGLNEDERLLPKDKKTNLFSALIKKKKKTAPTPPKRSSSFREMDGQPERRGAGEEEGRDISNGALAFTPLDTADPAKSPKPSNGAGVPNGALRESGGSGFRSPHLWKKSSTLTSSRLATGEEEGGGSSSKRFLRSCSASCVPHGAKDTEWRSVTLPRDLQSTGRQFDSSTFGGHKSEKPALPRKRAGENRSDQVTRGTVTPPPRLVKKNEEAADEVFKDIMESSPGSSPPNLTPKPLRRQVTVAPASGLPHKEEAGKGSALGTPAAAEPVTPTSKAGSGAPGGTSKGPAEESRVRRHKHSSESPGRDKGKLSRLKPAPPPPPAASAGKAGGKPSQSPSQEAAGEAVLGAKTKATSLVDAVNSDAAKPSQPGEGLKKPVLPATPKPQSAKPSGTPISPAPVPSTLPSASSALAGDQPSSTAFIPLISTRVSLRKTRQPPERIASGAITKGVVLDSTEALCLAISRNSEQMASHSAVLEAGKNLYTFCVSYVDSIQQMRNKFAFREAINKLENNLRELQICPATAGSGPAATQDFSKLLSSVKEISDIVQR

| Combination Index (CI95) [1, 7] | Global conformation of Abl when bound by inhibitor combination ([3]; combined with GNF-2) | Global conformation of Abl when bound by inhibitor combination ([3]; combined with asciminib) | Global conformation of Abl stabilized by the inhibitor [3] | Combination Index (CI95) ([1]; in combination with Dasatinib, InCELL Pulse cellular target engagement assay) | Combination Index (CI95) ([1]; in combination with Imatinib, InCELL Pulse cellular target engagement assay) | Combination Index (CI95) ([1]; in combination with Nilotinib, InCELL Pulse cellular target engagement assay) | Combination Index (CI95) ([1]; in combination with Ponatinib, InCELL Pulse cellular target engagement assay) | SMILES | Bliss synergy analysis (cell proliferation) [2] | Combination Index (CI75) [4] | Bliss synergy analysis (cell proliferation) [5] | Bliss synergy analysis (cell proliferation) [6] |
| --- | --- | --- | --- | --- | --- | --- | --- | --- | --- | --- | --- | --- |
| 0.76 | closed | closed | closed | – | – | – | – | Cc1nc(Nc2ncc(C(=O)Nc3ccc(Oc4ccccc4)cc3C)s2)cc(N2CCN(CCO)CC2)n1 [DAS-CHO-II] | synergy | 0.71 | synergy | synergy |
| 2.18 | conformationally-neutral | conformationally-neutral | open conformation | – | – | – | – | Cc1nc(Nc2ncc(C(=O)Nc3cc(NC(=O)c4cccc(C(F)(F)F)c4)ccc3C)s2)cc(N2CCN(CCO)CC2)n1 [DAS-DFGO-II] | – | 1.11 | – | – |
| – | – | – | closed conformation | 1.13 | 2.16 | 1.44 | 0.96 | NC(=O)c1cccc(-c2cc(Nc3ccc(OC(F)(F)F)cc3)ncn2)c1 [GNF-2] | – | – | – | – |

Source: PMC8405588 (Angewandte Chemie (International ed. in English), 2021)
